Test results as given in patent US20050192261A1, “Methods and reagents for the treatment of immunoinflammatory disorders” (priority 2003, published 2005).
Where “and” joins values, the source holds several entries; their conditions need not be identical. Equal entries are not always repeated. Structures can show the parent of a compound that is named as a salt. Where two headings read alike, the source gives them in different places.

Tested on: TNFα secretion in white blood cells from human buffy coat stimulated with phorbol 12-myristate 13-acetate and ionomycin
Test: TNFα secretion assay
Settings: for inhibition at 0.2 µM: read-out: percent inhibition of TNFα secretion, Amoxapine 0.2 μM; for inhibition at 0.4 µM: read-out: percent inhibition of TNFα secretion, Amoxapine 0.4 μM; for inhibition at 0.8 µM: read-out: percent inhibition of TNFα secretion, Amoxapine 0.8 μM; for inhibition at 13 µM: read-out: percent inhibition of TNFα secretion, Amoxapine 13 μM; for inhibition at 25 µM: read-out: percent inhibition of TNFα secretion, Amoxapine 25 μM; for inhibition at 0.3 µM: read-out: % inhibition of TNFα secretion, Dipyridamole 0.3 μM; for inhibition at 19 µM: read-out: % inhibition of TNFα secretion, Dipyridamole 19 μM
[1] = Homo sapiens, Bromodiphenhydramine HCl μM: 0/0.21/0.43/0.85/1.7/3.4/6.8/14/27
[2] = Homo sapiens, Cyproheptadine HCl μM: 0/0.24/0.48/0.96/1.9/3.9/7.7/15/31
[3] = Homo sapiens, Loratadine 0/0.2/0.41/0.82/1.6/3.3/6.5/13/26 μM
[4] = Homo sapiens, Thiethylperazine Maleate μM: 0/0.2/0.39/0.78/1.6/3.1/6.3/13/25
[5] = Homo sapiens, Bromodiphenhydramine HCl μM r5-r13: 0,0.21,0.43,0.85,1.7,3.4,6.8,14,27
[6] = Homo sapiens, Cyproheptadine HCl μM r5-r13: 0,0.24,0.48,0.96,1.9,3.9,7.7,15,31
[7] = Homo sapiens, Loratadine μM r5-r13: 0,0.2,0.41,0.82,1.6,3.3,6.5,13,26
[8] = Homo sapiens, Thiethylperazine Maleate μM r5-r13: 0,0.2,0.39,0.78,1.6,3.1,6.3,13,25

Experimental: Drugs were added to the indicated concentration. […] The plate was then washed again with 0.1% Tween 20/PBS. An HRP-luminescent substrate was added to each well, and the light intensity of each well was measured using a plate luminometer.

## CNCCC(Oc1ccc(C(F)(F)F)cc1)c1ccccc1 (racemic) [Fluoxetine HCl, (±)-N-methyl-3-phenyl-3-[((alpha),(alpha),(alpha)-trifluoro-p-tolyl)oxy]propylamine hydrochloride]
Homo sapiens, read-out: percent inhibition of TNFα secretion, Fluoxetine HCl 0.9 μM, Cyproheptadine HCl: 0/0.24/0.48/0.96/1.9/3.9/7.7/15/31 μM
  inhibition at 0.9 µM: -1.1%
Homo sapiens, read-out: percent inhibition of TNFα secretion, Fluoxetine HCl 14 μM, Cyproheptadine HCl: 0/0.24/0.48/0.96/1.9/3.9/7.7/15/31 μM
  inhibition at 14 µM: 16%
Homo sapiens, read-out: percent inhibition of TNFα secretion, Fluoxetine HCl 29 μM, Cyproheptadine HCl: 0/0.24/0.48/0.96/1.9/3.9/7.7/15/31 μM
  inhibition at 29 µM: 41%
Promethazine HCl 0 μM, Fluoxetine HCl μM r5-r13: 0,0.23,0.45,0.9,1.8,3.6,7.2,14,29, hydrochloride
  percent inhibition of TNFα secretion: 1.71% and −2.67% and 4.37% and 2.89% and −0.34% and −0.46% and −0.103% and 4.12%

## Clc1ccc2c(c1)C(N1CCNCC1)=Nc1ccccc1O2 [Amoxapine, amoxapine]
[1]
  inhibition at 0.2 µM: 4.3%
  inhibition at 0.4 µM: 13%
  inhibition at 0.8 µM: 20%
  inhibition at 13 µM: 80%
  inhibition at 25 µM: 92%
[2]
  inhibition at 0.2 µM: 3.5%
  inhibition at 0.4 µM: 9.8%
  inhibition at 0.8 µM: 17%
  inhibition at 13 µM: 85%
  inhibition at 25 µM: 94%
[3]
  inhibition at 0.2 µM: 7.52%
  inhibition at 0.4 µM: 11.2%
  inhibition at 0.8 µM: 22.2%
  inhibition at 13 µM: 83.7%
  inhibition at 25 µM: 88.2%
[4]
  inhibition at 0.2 µM: 12%
  inhibition at 0.4 µM: 12%
  inhibition at 0.8 µM: 24%
  inhibition at 13 µM: 74%
  inhibition at 25 µM: 83%

## CN(C)CCOC(c1ccccc1)c1ccc(Br)cc1 (stereo not drawn) [Bromodiphenhydramine HCl, bromodiphenhydramine]
Homo sapiens, read-out: percent inhibition of TNFα secretion, Bromodiphenhydramine HCl 14 μM, Fluoxetine HCl μM: 0/0.23/0.45/0.9/1.8/3.6/7.2/14/29
  inhibition at 14 µM: 39%
Homo sapiens, read-out: percent inhibition of TNFα secretion, Bromodiphenhydramine HCl 27 μM, Fluoxetine HCl μM: 0/0.23/0.45/0.9/1.8/3.6/7.2/14/29
  inhibition at 27 µM: 65.2%
Nortryptyline HCl 0 μM (Bromodiphenhydramine HCl alone), Bromodiphenhydramine HCl μM: 0/0.21/0.43/0.85/1.7/3.4/6.8/14/27
  percent inhibition of TNFα secretion: −15

## Clc1ccc(Cn2c(CN3CCCC3)nc3ccccc32)cc1 [Clemizole HCl, clemizole]
Homo sapiens, read-out: percent inhibition (dose matrix), Table 96, Clemizole HCl 14 μM, Amoxapine 0-25 μM
  inhibition at 14 µM: -11.9%
Homo sapiens, read-out: percent inhibition (dose matrix), Table 96, Clemizole HCl 28 μM, Amoxapine 0-25 μM
  inhibition at 28 µM: 0.658%
Homo sapiens, read-out: percent inhibition (dose matrix), Table 97, Clemizole HCl 14 μM, Nortriptyline HCl 0-33 μM per row (c1)
  inhibition at 14 µM: 5.46%
Homo sapiens, read-out: percent inhibition (dose matrix), Table 97, Clemizole HCl 28 μM, Nortriptyline HCl 0-33 μM per row (c1)
  inhibition at 28 µM: 19.5%
Homo sapiens, read-out: percent inhibition (dose matrix), Table 98, Clemizole HCl 14 μM, Paroxetine HCl 0-27 μM per row (c1)
  inhibition at 14 µM: 0.085%
Homo sapiens, read-out: percent inhibition (dose matrix), Table 98, Clemizole HCl 28 μM, Paroxetine HCl 0-27 μM per row (c1)
  inhibition at 28 µM: -7.43%
Homo sapiens, read-out: percent inhibition (dose matrix), Table 103, Clemizole HCl 14 μM, Fluoxetine HCl 0-29 μM
  inhibition at 14 µM: 9.15%
Homo sapiens, read-out: percent inhibition (dose matrix), Table 103, Clemizole HCl 28 μM, Fluoxetine HCl 0-29 μM
  inhibition at 28 µM: 9.27%
Homo sapiens, read-out: percent inhibition (dose matrix), Table 107, Clemizole HCl 14 μM, Desipramine HCl 0-32 μM per row (c1)
  inhibition at 14 µM: 3.19%
Homo sapiens, read-out: percent inhibition (dose matrix), Table 107, Clemizole HCl 28 μM, Desipramine HCl 0-32 μM per row (c1)
  inhibition at 28 µM: 14.9%
Homo sapiens, read-out: percent inhibition (dose matrix), Table 108, Clemizole HCl 14 μM, Sertraline HCl 0-32 μM per row (c1)
  inhibition at 14 µM: 4.65%
Homo sapiens, read-out: percent inhibition (dose matrix), Table 108, Clemizole HCl 28 μM, Sertraline HCl 0-32 μM per row (c1)
  inhibition at 28 µM: 16.9%
Homo sapiens, read-out: percent inhibition of TNFα secretion, Clemizole HCl 14 μM, Amoxapine μM r5-r13: 0,0.2,0.4,0.8,1.6,3.2,6.4,13,25
  inhibition at 14 µM: 20%
Homo sapiens, read-out: percent inhibition of TNFα secretion, Clemizole HCl 14 μM, Desipramine HCl: 0/0.25/0.5/1/2/4/8/16/32 μM
  inhibition at 14 µM: 26.4%
Homo sapiens, read-out: percent inhibition of TNFα secretion, Clemizole HCl 14 μM, Fluoxetine HCl μM: 0/0.23/0.45/0.9/1.8/3.6/7.2/14/29
  inhibition at 14 µM: 26.1%
Homo sapiens, read-out: percent inhibition of TNFα secretion, Clemizole HCl 14 μM, Paroxetine HCl μM r5-r13: 0,0.21,0.42,0.83,1.7,3.3,6.7,13,27
  inhibition at 14 µM: 22.4%
Homo sapiens, read-out: percent inhibition of TNFα secretion, Clemizole HCl 14 μM, Sertraline HCl by grid row r5-r13: 0/0.25/0.49/0.99/2/4/7.9/16/32 μM
  inhibition at 14 µM: 24.5%
Homo sapiens, read-out: percent inhibition of TNFα secretion, Clemizole HCl 28 μM, Amoxapine μM r5-r13: 0,0.2,0.4,0.8,1.6,3.2,6.4,13,25
  inhibition at 28 µM: 42.5%
Homo sapiens, read-out: percent inhibition of TNFα secretion, Clemizole HCl 28 μM, Desipramine HCl: 0/0.25/0.5/1/2/4/8/16/32 μM
  inhibition at 28 µM: 41.4%
Homo sapiens, read-out: percent inhibition of TNFα secretion, Clemizole HCl 28 μM, Fluoxetine HCl μM: 0/0.23/0.45/0.9/1.8/3.6/7.2/14/29
  inhibition at 28 µM: 34.1%
Homo sapiens, read-out: percent inhibition of TNFα secretion, Clemizole HCl 28 μM, Paroxetine HCl μM r5-r13: 0,0.21,0.42,0.83,1.7,3.3,6.7,13,27
  inhibition at 28 µM: 42.1%
Homo sapiens, read-out: percent inhibition of TNFα secretion, Clemizole HCl 28 μM, Sertraline HCl by grid row r5-r13: 0/0.25/0.49/0.99/2/4/7.9/16/32 μM
  inhibition at 28 µM: 43.3%
Prednisolone […], clemizole HCl r5-r13: 0,0.22,0.43,0.86,1.7,3.5,6.9,14,28 μM
  inhibition of TNFα secretion: 28

## OCCN(CCO)c1nc(N2CCCCC2)c2nc(N(CCO)CCO)nc(N3CCCCC3)c2n1 [Dipyridamole]
[5]
  inhibition at 0.3 µM: 0.92%
  inhibition at 19 µM: 71%
[6]
  inhibition at 0.3 µM: -0.27%
  inhibition at 19 µM: 63%
[7]
  inhibition at 0.3 µM: 9.6%
  inhibition at 19 µM: 70%
[8]
  inhibition at 0.3 µM: 7%
  inhibition at 19 µM: 71%

## CN(C)CCOC(C)(c1ccccc1)c1ccccn1 (stereo not drawn) [Doxylamine Succinate]
Prednisolone 1 μM, doxylamine succinate r5-r13: 0,0.2,0.4,0.8,1.6,3.2,6.4,13,26 μM
  inhibition of TNFα secretion: 34

## CC(C)(C(=O)O)c1ccc(C(O)CCCN2CCC(C(O)(c3ccccc3)c3ccccc3)CC2)cc1 (stereo not drawn) [Fexofenadine HCl]
Prednisolone 0.5 μM, fexofenadine HCl r5-r13: 0,0.073,0.15,0.29,0.58,1.2,2.3,4.6,9.3 μM
  inhibition of TNFα secretion: 50
